Results: ChEMBL document CHEMBL3431459, “Roche carnitine palmitoyltransferase modulator screening data (supplementary data associated with the publication CHEMBL2216752)”
≈ marks a conversion by molar mass, not a printed value.

Assays:
[1] = SUPPLEMENTARY: Lipophilicity (log D) Determination by high-throughput shake-flask; type: physicochemical; conditions: octanol/water
[2] = molecular target: T1, Carnitine O-palmitoyltransferase 1, liver isoform (Rattus norvegicus, UniProt P32198); experiment: (§1) SUPPLEMENTARY: Inhibition of Carnitine palmitoyltransferase 1, liver isoform
T1 sequence (P32198 whole entry): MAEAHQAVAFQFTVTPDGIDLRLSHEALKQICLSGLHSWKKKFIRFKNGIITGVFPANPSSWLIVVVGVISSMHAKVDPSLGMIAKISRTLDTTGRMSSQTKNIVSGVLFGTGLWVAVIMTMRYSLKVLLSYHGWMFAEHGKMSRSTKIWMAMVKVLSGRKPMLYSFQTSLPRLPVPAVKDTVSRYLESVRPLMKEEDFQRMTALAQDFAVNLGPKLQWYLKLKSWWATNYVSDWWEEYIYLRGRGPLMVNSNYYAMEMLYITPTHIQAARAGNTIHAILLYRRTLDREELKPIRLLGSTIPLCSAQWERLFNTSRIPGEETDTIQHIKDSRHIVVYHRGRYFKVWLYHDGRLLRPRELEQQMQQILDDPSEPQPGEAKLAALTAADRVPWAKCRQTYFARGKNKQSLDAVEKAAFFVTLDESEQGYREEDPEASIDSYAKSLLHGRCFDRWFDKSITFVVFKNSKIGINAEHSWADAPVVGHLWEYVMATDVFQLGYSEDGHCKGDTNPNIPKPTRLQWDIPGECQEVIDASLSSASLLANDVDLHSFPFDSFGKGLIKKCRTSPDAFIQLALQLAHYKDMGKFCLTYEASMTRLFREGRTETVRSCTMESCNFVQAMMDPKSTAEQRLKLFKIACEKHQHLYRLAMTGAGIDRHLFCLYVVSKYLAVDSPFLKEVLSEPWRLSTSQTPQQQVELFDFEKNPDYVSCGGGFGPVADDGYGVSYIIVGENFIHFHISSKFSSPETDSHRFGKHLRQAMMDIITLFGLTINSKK

[3] = molecular target: T2, Carnitine O-palmitoyltransferase 1, liver isoform (Homo sapiens, UniProt P50416); experiment: as §1
T2 sequence (P50416 whole entry): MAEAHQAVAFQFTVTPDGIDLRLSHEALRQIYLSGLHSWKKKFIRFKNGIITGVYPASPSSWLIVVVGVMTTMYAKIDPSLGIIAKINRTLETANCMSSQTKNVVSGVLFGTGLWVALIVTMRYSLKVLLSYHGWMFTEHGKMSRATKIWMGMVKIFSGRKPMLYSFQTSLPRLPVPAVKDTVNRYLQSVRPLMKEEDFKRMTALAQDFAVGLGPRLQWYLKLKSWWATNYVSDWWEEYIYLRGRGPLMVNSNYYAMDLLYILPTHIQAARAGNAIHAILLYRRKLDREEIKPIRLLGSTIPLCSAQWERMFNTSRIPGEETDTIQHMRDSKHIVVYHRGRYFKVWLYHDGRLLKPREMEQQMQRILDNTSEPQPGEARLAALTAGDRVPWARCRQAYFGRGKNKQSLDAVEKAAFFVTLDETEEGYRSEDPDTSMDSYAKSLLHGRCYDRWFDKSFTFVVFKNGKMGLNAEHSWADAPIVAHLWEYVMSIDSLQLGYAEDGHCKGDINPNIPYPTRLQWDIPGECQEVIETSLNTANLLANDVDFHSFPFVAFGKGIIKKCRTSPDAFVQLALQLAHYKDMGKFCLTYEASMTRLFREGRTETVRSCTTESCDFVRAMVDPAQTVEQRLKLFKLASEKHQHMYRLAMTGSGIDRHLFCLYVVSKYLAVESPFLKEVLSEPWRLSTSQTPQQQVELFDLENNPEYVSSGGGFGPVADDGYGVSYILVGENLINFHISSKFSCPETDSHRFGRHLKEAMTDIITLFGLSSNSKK

[4] = molecular target: T3, Carnitine O-palmitoyltransferase 2, mitochondrial (Rattus norvegicus, UniProt P18886); experiment: (§2) SUPPLEMENTARY: Inhibition of Carnitine palmitoyltransferase 2
T3 sequence (P18886 whole entry): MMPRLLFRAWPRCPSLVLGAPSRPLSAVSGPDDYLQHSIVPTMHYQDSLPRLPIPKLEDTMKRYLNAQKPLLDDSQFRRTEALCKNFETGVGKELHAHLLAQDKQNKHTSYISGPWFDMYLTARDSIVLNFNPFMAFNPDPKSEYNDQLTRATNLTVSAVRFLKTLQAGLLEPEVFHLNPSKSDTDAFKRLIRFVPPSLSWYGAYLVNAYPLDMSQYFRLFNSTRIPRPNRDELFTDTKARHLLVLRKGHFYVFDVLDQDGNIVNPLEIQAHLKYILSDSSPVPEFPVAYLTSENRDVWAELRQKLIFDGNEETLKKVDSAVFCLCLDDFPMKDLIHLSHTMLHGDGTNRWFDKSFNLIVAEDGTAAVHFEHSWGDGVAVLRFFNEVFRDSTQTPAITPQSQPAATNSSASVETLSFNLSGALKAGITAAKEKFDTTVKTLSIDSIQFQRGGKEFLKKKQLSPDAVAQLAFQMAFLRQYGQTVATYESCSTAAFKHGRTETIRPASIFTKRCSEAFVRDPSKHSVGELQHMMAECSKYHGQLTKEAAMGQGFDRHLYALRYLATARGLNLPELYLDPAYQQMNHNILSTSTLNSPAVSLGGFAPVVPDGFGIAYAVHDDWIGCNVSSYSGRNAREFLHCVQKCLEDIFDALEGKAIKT

[5] = molecular target: T4, Carnitine O-palmitoyltransferase 2, mitochondrial (Homo sapiens, UniProt P23786); experiment: as §2
T4 sequence (P23786 whole entry): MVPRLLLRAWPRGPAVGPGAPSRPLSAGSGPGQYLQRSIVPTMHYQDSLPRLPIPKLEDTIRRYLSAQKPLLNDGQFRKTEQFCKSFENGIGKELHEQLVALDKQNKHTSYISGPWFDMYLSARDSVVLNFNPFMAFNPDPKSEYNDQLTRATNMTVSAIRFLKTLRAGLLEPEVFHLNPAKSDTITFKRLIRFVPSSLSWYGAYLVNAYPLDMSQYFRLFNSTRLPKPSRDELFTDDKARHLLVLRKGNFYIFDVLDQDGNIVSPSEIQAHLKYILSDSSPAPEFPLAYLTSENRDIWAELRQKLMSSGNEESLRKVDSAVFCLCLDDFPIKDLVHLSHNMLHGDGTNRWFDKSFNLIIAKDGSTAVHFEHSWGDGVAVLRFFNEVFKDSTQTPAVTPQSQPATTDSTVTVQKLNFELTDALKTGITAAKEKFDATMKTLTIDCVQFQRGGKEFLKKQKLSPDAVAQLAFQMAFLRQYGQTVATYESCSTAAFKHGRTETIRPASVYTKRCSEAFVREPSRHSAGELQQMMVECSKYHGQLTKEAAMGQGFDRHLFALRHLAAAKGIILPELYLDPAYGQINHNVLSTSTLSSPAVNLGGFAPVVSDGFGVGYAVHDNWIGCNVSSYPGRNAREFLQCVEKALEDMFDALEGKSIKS

[6] = SUPPLEMENTARY: Lyophilisation Solubility Assay (LYSA); type: physicochemical; conditions: read-out: Kinetic_solubility
[7] = molecular target: T5, Carnitine O-palmitoyltransferase 1, muscle isoform (Homo sapiens, UniProt Q92523); experiment: SUPPLEMENTARY: Inhibition of Carnitine palmitoyltransferase 1, muscle isoform; parameters: species or system Muscle tissue
T5 sequence (Q92523 whole entry): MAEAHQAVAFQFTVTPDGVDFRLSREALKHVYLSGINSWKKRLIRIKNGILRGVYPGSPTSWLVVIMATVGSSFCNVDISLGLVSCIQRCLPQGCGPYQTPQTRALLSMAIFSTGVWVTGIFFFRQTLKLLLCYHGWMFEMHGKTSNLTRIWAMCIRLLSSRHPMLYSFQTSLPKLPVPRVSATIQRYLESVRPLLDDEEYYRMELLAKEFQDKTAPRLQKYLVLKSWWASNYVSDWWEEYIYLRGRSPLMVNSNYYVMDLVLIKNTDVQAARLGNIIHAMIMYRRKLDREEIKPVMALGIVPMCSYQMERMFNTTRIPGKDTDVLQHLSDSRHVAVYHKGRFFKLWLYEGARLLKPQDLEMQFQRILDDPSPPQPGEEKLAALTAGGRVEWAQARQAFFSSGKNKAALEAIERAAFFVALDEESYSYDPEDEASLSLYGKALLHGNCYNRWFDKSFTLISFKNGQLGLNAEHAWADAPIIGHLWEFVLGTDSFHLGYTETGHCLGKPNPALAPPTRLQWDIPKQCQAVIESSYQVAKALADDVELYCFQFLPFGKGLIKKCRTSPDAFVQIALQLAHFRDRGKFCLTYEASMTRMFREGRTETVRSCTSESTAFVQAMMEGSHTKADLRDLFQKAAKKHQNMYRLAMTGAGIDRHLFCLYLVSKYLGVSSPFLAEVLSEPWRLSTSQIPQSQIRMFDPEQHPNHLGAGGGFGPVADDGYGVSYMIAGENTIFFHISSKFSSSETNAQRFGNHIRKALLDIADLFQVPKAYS

[8] = SUPPLEMENTARY: PAMPA permeability assay; type: physicochemical; conditions: read-out: Permeability

| logD [1] | IC50 [2] [nM] | IC50 [3] [nM] | IC50 [4] [nM] | IC50 [5] [nM] | solubility kinetic [6] [µg/mL] | IC50 [7] [nM] | Papp [8] [×10⁻⁶ cm/s] | Structure (SMILES) |
| --- | --- | --- | --- | --- | --- | --- | --- | --- |
| 3.13 | 330 | 228 | > 100000 | 16300 | 55 (≈ 144 µM) | > 100000 | 6.42 | Cc1cc(-c2nc([C@H]3CCCCN3C(=O)COc3ccccc3)no2)n(C)n1 |
| 2.57 | 146 | 188 | > 100000 | > 100000 | 52 (≈ 142 µM) | 62700 | 6.09 | Cc1cc(-c2nc([C@H]3CCCCN3C(=O)COc3ccccc3)no2)[nH]n1 |
| 2.6 | 144 | 116 | > 100000 | > 100000 | 41 (≈ 111 µM) | > 100000 | 9.63 | Cc1cc(-c2nc([C@H]3CCCCN3C(=O)COc3ccccc3)no2)on1 |
| 1.07 | 388 | 140 | > 100000 | > 100000 | 68 (≈ 171 µM) | > 100000 | 6.99 | O=C(COc1ccccc1)N1CCCC[C@@H]1c1noc(-c2cc([N+](=O)[O-])[nH]n2)n1 |
| 2.89 | 154 | 98.2 | > 100000 | 4740 | 8 (≈ 18.4 µM) | > 100000 | 3.59 | O=C1Nc2ccc(-c3noc([C@H]4CCCCN4C(=O)COc4ccccc4)n3)cc2CO1 |
| 2.37 | 32 | 16.7 | > 100000 | > 100000 | 5 (≈ 10.6 µM) | 531 | 2.22 | Cc1cc(C)cc(S(=O)(=O)N2CCc3ccc(C(=O)Nc4nc(CC(=O)O)cs4)cc32)c1 |
| 0.34 | 25.8 | 40.7 | > 100000 | > 100000 | 260 (≈ 544 µM) | 601 | 2.91 | O=C(O)Cc1csc(NC(=O)c2ccc3c(c2)N(S(=O)(=O)c2cccc(Cl)c2)CC3)n1 |
| 0.05 | 38.6 | 41.6 | > 100000 | > 100000 | 31 (≈ 59.2 µM) | 1430 | 2.18 | COc1ccc(Cl)cc1S(=O)(=O)N1CCOc2ccc(C(=O)Nc3ncc(CC(=O)O)s3)cc21 |
| 0.47 | 184 | 229 | > 100000 | 68500 | 26 (≈ 53.6 µM) | 5170 | 1.05 | O=C(O)c1ccc(NC(=O)c2ccc3c(c2)N(Cc2cccc(Cl)c2)C(=O)CS3(=O)=O)cc1 |
| 2.18 | 546 | 192 | 44100 | 40200 | 77 (≈ 178 µM) | > 100000 | 2.18 | O=C1NCc2ccc(-c3n[nH]c([C@H]4CCCCN4C(=O)COc4ccccc4)n3)cc2N1 |
| 2.82 | 59.8 | 59.7 | > 100000 | > 100000 | < 1 | > 100000 | 24.5 | O=C(COc1ccccc1)N1CCCC[C@@H]1c1nc(-c2cccc(N3CCCS3(=O)=O)c2)no1 |
